According to PMC11864979, “First-in-class ultralong-target-residence-time p38α inhibitors as a mitosis-targeted therapy for colorectal cancer” (Nature Cancer, 2025):
Like-named read-outs stand apart in the source and are kept apart here.

How the values were obtained:
Test in all cases: selectivity profiling in a panel of 340 wild-type kinases (Reaction Biology Europe)
Assay type in all cases: binding
340 wild-type kinases [1] = target: T1, 340 wild-type kinases (Homo sapiens, UniProt P57059)
T1 construct: purchased Reaction Biology Europe

340 wild-type kinases [2] = target: T2, 340 wild-type kinases (Homo sapiens, UniProt P25098)
T2 construct: purchased Reaction Biology Europe
T2 sequence (P25098 1-689): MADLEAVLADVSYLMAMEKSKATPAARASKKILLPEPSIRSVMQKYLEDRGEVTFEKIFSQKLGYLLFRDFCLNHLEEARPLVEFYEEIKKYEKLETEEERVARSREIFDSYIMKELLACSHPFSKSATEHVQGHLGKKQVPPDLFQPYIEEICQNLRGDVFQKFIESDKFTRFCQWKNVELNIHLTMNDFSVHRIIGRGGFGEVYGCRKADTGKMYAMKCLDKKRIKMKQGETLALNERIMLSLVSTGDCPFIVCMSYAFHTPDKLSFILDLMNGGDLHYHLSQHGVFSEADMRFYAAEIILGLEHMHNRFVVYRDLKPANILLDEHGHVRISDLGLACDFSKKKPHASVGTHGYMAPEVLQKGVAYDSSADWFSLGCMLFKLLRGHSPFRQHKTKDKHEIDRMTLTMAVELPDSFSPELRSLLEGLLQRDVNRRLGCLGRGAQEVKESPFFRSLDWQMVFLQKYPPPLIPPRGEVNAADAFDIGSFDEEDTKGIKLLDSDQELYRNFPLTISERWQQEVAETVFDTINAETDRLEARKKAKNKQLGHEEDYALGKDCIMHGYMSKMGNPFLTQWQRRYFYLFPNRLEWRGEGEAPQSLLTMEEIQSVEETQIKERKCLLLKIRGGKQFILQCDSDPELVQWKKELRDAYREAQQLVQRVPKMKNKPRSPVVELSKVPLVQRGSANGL

340 wild-type kinases [3] = target: T3, 340 wild-type kinases (Homo sapiens, UniProt Q9UPE1)
T3 construct: purchased Reaction Biology Europe

340 wild-type kinases [4] = target: T4, 340 wild-type kinases (Homo sapiens, UniProt Q9BWU1)
T4 construct: purchased Reaction Biology Europe

340 wild-type kinases [5] = target: T5, 340 wild-type kinases (Homo sapiens, UniProt P36507)
T5 construct: purchased Reaction Biology Europe

340 wild-type kinases [6] = target: T6, 340 wild-type kinases (Homo sapiens, UniProt Q9H2G2)
T6 construct: purchased Reaction Biology Europe

340 wild-type kinases [7] = target: T7, 340 wild-type kinases (Homo sapiens, UniProt Q16539)
T7 construct: purchased Reaction Biology Europe

340 wild-type kinases [8] = target: T8, 340 wild-type kinases (Homo sapiens, UniProt P00533)
T8 construct: purchased Reaction Biology Europe

340 wild-type kinases [9] = target: T9, 340 wild-type kinases (Homo sapiens, UniProt Q13705)
T9 construct: purchased Reaction Biology Europe

340 wild-type kinases [10] = target: T10, 340 wild-type kinases (Homo sapiens, UniProt P22607)
T10 construct: purchased Reaction Biology Europe

340 wild-type kinases [11] = target: T11, 340 wild-type kinases (Homo sapiens, UniProt P51955)
T11 construct: purchased Reaction Biology Europe
T11 sequence (P51955 1-445): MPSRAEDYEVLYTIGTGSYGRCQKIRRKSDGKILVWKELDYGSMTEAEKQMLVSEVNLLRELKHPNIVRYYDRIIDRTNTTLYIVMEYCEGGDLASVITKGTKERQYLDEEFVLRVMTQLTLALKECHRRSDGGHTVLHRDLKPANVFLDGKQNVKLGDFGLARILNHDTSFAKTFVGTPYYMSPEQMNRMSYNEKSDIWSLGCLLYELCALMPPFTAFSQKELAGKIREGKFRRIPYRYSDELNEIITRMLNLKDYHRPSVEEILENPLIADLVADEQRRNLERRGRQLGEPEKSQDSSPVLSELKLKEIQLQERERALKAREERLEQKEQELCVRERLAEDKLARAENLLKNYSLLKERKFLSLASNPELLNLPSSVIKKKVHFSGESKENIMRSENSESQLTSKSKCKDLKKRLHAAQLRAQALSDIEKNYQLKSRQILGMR

T10 sequence (P22607 23-806): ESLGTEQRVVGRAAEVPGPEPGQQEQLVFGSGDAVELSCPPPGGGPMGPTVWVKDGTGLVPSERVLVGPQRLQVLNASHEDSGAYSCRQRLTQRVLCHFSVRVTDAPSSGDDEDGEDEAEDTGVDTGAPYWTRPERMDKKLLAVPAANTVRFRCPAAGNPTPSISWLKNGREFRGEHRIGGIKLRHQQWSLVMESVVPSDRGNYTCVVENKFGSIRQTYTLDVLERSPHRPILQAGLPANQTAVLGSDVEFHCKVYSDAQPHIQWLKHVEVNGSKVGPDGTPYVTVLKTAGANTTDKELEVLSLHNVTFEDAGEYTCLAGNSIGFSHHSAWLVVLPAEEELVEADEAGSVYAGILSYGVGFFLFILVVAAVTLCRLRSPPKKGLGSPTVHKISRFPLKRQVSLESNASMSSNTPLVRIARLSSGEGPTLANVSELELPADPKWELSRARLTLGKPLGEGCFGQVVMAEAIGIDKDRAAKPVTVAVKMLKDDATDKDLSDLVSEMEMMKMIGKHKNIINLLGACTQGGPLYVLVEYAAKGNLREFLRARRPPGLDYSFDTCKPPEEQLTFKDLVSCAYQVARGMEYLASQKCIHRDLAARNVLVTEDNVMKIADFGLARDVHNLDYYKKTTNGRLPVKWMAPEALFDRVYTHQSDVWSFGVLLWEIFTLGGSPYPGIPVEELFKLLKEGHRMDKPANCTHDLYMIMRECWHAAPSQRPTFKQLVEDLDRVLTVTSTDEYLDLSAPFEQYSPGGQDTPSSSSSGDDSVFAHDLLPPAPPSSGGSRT
T9 sequence (Q13705 19-512): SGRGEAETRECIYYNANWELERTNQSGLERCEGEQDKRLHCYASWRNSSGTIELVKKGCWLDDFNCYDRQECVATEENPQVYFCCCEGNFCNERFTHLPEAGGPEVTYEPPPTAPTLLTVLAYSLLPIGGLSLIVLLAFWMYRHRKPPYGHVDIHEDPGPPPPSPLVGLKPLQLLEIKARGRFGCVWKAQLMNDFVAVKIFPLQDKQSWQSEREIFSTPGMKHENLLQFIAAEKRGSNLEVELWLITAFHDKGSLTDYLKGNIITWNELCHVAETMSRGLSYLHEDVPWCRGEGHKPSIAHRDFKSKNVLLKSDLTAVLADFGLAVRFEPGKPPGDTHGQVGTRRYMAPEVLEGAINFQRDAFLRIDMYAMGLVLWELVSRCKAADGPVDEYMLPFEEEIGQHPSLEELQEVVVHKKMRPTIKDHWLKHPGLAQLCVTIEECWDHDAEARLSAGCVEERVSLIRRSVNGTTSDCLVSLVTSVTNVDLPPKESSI
T7 sequence (Q16539 whole entry): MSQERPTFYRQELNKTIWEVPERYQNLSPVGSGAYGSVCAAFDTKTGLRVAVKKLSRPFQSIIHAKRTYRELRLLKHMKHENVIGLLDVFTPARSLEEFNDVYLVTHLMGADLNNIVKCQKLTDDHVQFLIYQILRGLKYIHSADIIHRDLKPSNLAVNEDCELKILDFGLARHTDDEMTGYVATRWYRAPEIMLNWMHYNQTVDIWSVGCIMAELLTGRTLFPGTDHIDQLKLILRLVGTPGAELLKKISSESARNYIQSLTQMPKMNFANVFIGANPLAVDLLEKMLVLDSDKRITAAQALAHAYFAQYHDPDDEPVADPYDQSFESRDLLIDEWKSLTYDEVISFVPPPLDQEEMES
T6 sequence (Q9H2G2 whole entry): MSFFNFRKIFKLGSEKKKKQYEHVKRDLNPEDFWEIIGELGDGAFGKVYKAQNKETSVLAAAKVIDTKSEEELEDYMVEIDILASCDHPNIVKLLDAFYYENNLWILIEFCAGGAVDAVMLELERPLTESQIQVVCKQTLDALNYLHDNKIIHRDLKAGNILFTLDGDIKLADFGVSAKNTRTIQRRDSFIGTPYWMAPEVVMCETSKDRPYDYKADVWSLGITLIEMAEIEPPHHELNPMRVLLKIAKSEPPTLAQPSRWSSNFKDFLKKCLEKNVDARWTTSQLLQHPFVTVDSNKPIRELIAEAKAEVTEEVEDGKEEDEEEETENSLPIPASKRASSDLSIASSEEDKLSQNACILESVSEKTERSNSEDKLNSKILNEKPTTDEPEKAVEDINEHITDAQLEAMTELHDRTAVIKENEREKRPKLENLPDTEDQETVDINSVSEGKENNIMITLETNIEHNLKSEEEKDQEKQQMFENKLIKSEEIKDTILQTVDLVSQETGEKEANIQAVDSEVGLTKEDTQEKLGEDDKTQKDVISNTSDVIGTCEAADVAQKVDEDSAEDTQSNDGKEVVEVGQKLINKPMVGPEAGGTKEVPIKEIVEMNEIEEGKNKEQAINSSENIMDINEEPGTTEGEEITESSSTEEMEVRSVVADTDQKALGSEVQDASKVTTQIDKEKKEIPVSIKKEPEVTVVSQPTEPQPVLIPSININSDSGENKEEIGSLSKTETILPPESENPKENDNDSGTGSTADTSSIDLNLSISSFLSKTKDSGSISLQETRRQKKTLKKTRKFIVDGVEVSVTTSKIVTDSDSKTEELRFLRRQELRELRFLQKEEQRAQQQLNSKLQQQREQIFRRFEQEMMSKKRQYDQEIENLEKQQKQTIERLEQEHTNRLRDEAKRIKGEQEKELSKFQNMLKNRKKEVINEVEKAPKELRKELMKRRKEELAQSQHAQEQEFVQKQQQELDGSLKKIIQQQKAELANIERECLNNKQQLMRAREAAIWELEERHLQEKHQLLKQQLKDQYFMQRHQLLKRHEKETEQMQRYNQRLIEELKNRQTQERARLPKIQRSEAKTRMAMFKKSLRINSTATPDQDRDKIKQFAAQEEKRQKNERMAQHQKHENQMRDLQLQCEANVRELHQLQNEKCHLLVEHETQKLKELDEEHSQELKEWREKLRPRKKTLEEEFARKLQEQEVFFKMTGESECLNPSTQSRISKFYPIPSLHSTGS
T3 sequence (Q9UPE1 whole entry): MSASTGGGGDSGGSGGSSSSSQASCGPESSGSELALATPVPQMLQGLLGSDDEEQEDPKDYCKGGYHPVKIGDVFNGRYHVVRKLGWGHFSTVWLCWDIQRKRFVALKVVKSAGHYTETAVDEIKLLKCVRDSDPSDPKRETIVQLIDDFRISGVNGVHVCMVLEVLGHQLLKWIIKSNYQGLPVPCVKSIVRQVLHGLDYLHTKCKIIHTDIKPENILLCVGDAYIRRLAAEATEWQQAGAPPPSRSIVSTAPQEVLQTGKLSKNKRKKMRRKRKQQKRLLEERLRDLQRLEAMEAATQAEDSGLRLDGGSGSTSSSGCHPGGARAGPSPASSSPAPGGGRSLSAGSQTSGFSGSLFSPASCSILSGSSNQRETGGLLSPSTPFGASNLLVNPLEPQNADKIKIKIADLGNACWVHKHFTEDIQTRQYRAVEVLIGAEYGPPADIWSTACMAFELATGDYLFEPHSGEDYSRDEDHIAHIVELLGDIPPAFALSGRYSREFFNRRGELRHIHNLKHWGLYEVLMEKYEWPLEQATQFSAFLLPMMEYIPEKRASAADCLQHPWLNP
T8 sequence (P00533 25-1210): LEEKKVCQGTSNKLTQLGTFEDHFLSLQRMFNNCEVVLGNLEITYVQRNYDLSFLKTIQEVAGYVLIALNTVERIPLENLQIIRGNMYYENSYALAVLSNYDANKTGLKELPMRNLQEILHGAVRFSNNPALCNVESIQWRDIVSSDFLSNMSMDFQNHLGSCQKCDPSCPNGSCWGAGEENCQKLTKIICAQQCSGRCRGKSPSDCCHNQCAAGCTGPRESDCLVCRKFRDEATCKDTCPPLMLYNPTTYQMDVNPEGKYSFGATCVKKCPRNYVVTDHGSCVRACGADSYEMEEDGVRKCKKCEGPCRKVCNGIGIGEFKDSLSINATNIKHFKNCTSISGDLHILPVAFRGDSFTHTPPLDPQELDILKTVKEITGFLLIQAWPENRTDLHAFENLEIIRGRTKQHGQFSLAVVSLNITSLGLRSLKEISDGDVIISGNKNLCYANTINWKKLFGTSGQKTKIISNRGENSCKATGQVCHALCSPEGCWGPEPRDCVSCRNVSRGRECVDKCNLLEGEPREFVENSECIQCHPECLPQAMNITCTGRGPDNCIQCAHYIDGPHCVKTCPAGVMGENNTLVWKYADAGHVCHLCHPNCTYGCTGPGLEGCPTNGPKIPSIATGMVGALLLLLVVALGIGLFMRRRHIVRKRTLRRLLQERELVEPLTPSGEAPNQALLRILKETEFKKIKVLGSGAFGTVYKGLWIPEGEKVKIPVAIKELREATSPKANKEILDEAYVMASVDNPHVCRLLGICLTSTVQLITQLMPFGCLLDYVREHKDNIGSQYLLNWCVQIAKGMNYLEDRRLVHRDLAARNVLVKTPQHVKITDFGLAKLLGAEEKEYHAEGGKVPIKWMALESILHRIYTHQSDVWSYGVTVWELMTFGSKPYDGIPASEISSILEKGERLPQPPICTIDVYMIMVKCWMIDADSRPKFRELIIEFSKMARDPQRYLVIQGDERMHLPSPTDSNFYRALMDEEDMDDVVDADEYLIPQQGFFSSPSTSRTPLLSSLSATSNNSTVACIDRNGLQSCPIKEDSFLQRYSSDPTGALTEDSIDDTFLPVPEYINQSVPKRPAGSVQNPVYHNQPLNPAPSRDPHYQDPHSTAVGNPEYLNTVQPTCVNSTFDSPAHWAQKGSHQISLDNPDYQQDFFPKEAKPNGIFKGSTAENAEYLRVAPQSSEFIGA
T5 sequence (P36507 whole entry): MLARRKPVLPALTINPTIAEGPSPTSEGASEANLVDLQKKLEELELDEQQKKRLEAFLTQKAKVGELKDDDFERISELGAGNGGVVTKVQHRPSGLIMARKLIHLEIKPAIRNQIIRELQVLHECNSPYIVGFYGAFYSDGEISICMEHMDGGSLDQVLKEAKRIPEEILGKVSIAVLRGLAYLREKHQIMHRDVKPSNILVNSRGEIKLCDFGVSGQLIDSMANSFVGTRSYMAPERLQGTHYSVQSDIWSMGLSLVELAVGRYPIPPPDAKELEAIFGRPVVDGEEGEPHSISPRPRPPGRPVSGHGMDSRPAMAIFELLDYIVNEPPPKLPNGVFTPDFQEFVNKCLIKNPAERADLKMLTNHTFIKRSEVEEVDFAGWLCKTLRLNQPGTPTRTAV

Q: Which remaining activity at 0.2 µM (340 wild-type kinases [1]; 0.2 µM 2015, read-out: SIK1 residual activity) does the source give for `CNC(=O)c1ccc2c(c1)C(=O)c1ccc(Nc3ccc(F)c(NC(=O)C4CC4)c3)cc1CC2` [Compound 2015] here?
A: 90.9%

Q: What about the remaining activity at 1 µM (340 wild-type kinases [1]; 1 µM 2015, read-out: SIK1 residual activity) of the same compound?
A: 85.5%

Q: And the remaining activity at 0.2 µM (340 wild-type kinases [1]; SIK1, 0.2 µM, read-out: residual activity)?
A: 90.9%

Q: And the remaining activity at 1 µM (340 wild-type kinases [1]; SIK1, 1 µM, read-out: residual activity)?
A: 85.5%

Q: And the remaining activity at 0.2 µM (340 wild-type kinases [2]; 0.2 µM 2015, read-out: GRK2 residual activity)?
A: 89.1%

Q: What about the remaining activity at 0.2 µM (340 wild-type kinases [2]; GRK2, 0.2 µM, read-out: residual activity) of the same compound?
A: 89.2%

Q: And the remaining activity at 1 µM (340 wild-type kinases [2]; GRK2, 1 µM, read-out: residual activity)?
A: 80.8%

Q: What about the remaining activity at 0.2 µM (340 wild-type kinases [3]; 0.2 µM 2015, read-out: STK23 residual activity) of the same compound?
A: 90.7%

Q: What about the remaining activity at 1 µM (340 wild-type kinases [3]; 1 µM 2015, read-out: STK23 residual activity) of the same compound?
A: 94.1%

Q: What about the remaining activity at 0.2 µM (340 wild-type kinases [3]; STK23, 0.2 µM, read-out: residual activity) of the same compound?
A: 90.7%

Q: What about the remaining activity at 0.2 µM (340 wild-type kinases [4]; 0.2 µM 2015, read-out: CDK19/CycC residual activity) of the same compound?
A: 99.8%

Q: What about the remaining activity at 1 µM (340 wild-type kinases [4]; 1 µM 2015, read-out: CDK19/CycC residual activity) of the same compound?
A: 96.4%

Q: And the remaining activity at 0.2 µM (340 wild-type kinases [4]; CDK19/CycC, 0.2 µM, read-out: residual activity)?
A: 99.8%

Q: What about the remaining activity at 1 µM (340 wild-type kinases [4]; CDK19/CycC, 1 µM, read-out: residual activity) of the same compound?
A: 96.4%

Q: What about the remaining activity at 0.2 µM (340 wild-type kinases [5]; 0.2 µM 2015, read-out: MEK2 residual activity) of the same compound?
A: 103%

Q: And the remaining activity at 1 µM (340 wild-type kinases [5]; 1 µM 2015, read-out: MEK2 residual activity)?
A: 69.7%

Q: What about the remaining activity at 0.2 µM (340 wild-type kinases [5]; MEK2, 0.2 µM, read-out: residual activity) of the same compound?
A: 103%

Q: And the remaining activity at 1 µM (340 wild-type kinases [5]; MEK2, 1 µM, read-out: residual activity)?
A: 69.7%

Q: And the remaining activity at 0.2 µM (340 wild-type kinases [6]; 0.2 µM 2015, read-out: SLK residual activity)?
A: 75%

Q: What about the remaining activity at 1 µM (340 wild-type kinases [6]; 1 µM 2015, read-out: SLK residual activity) of the same compound?
A: 75.3%

Q: What about the remaining activity at 0.2 µM (340 wild-type kinases [6]; SLK, 0.2 µM, read-out: residual activity) of the same compound?
A: 75%

Q: And the remaining activity at 1 µM (340 wild-type kinases [6]; SLK, 1 µM, read-out: residual activity)?
A: 75.3%

Q: What about the remaining activity at 0.2 µM (340 wild-type kinases [7]; 0.2 µM 2015, read-out: p38alpha residual activity) of the same compound?
A: 5.35%

Q: And the remaining activity at 1 µM (340 wild-type kinases [7]; 1 µM 2015, read-out: p38alpha residual activity)?
A: 1.8%

Q: And the remaining activity at 0.2 µM (340 wild-type kinases [7]; p38alpha, 0.2 µM, read-out: residual activity)?
A: 5.35%

Q: What about the remaining activity at 1 µM (340 wild-type kinases [7]; p38alpha, 1 µM, read-out: residual activity) of the same compound?
A: 1.8%

Q: And the remaining activity at 0.2 µM (340 wild-type kinases [8]; 0.2 µM 2015, read-out: EGFR residual activity)?
A: 108%

Q: And the remaining activity at 1 µM (340 wild-type kinases [8]; 1 µM 2015, read-out: EGFR residual activity)?
A: 96.6%

Q: And the remaining activity at 0.2 µM (340 wild-type kinases [8]; EGFR, 0.2 µM, read-out: residual activity)?
A: 108%

Q: What about the remaining activity at 1 µM (340 wild-type kinases [8]; EGFR, 1 µM, read-out: residual activity) of the same compound?
A: 96.6%

Q: What about the remaining activity at 0.2 µM (340 wild-type kinases [9]; 0.2 µM 2015, read-out: ACVR2B residual activity) of the same compound?
A: 81.6%

Q: What about the remaining activity at 1 µM (340 wild-type kinases [9]; 1 µM 2015, read-out: ACVR2B residual activity) of the same compound?
A: 82.3%

Q: And the remaining activity at 0.2 µM (340 wild-type kinases [9]; ACVR2B, 0.2 µM, read-out: residual activity)?
A: 81.7%

Q: What about the remaining activity at 1 µM (340 wild-type kinases [9]; ACVR2B, 1 µM, read-out: residual activity) of the same compound?
A: 82.3%

Q: What about the remaining activity at 0.2 µM (340 wild-type kinases [10]; 0.2 µM 2015, read-out: FGFR3 residual activity) of the same compound?
A: 109%

Q: What about the remaining activity at 1 µM (340 wild-type kinases [10]; 1 µM 2015, read-out: FGFR3 residual activity) of the same compound?
A: 97.1%

Q: And the remaining activity at 0.2 µM (340 wild-type kinases [10]; FGFR3, 0.2 µM, read-out: residual activity)?
A: 109%

Q: What about the remaining activity at 1 µM (340 wild-type kinases [10]; FGFR3, 1 µM, read-out: residual activity) of the same compound?
A: 97.1%

Q: What about the remaining activity at 0.2 µM (340 wild-type kinases [11]; 0.2 µM 2015, read-out: NEK2 residual activity) of the same compound?
A: 104%

Q: And the remaining activity at 1 µM (340 wild-type kinases [11]; 1 µM 2015, read-out: NEK2 residual activity)?
A: 95%

Q: What about the remaining activity at 0.2 µM (340 wild-type kinases [11]; NEK2, 0.2 µM, read-out: residual activity) of the same compound?
A: 104%

Q: And the remaining activity at 1 µM (340 wild-type kinases [11]; NEK2, 1 µM, read-out: residual activity)?
A: 95%
